Measurements taken from PubChem BioAssay AID248 (DTP/NCI, 2004).
Several values for one entry are separate records, joined by “and”; a condition that tells them apart may be missing. Equal entries are not always repeated. Toxic doses and inconclusive results are not listed. Cut-off read from the data, not from the text of the source: active = T/C of 150% or more; inactive = T/C below 125%.

Tested on: L1210 leukemia ip in BDF1 mice, survival T/C
Assay: NCI In Vivo Anticancer Drug Screen. Data for tumor model L1210 Leukemia (intraperitoneal) in B6D2F1 (BDF1) mice
Conditions: endpoint: mean survival time, higher = longer survival
How it was run: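 Value reflects the ratio of survival in compound-treated mice to survival in vehicle-treated controls, with both groups carrying the same transplanted tumor.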

[1] = dose: 10.0 mg/kg/injection, schedule: Q01DX001 (ip), vehicle: carboxymethylcellulose (CMC)
[2] = dose: 100.0 mg/kg/injection, schedule: Q04DX003 (ip), vehicle: saline
[3] = dose: 200.0 mg/kg/injection, schedule: Q04DX003 (ip), vehicle: saline
[4] = dose: 400.0 mg/kg/injection, schedule: Q04DX003 (ip), vehicle: saline
[5] = dose: 100.0 mg/kg/injection, schedule: Q04DX003 (ip), vehicle: saline with Tween-80
[6] = dose: 200.0 mg/kg/injection, schedule: Q04DX003 (ip), vehicle: saline with Tween-80
[7] = dose: 400.0 mg/kg/injection, schedule: Q04DX003 (ip), vehicle: saline with Tween-80
[8] = dose: 100.0 mg/kg/injection, schedule: Q01DX001 (ip), vehicle: saline
[9] = dose: 200.0 mg/kg/injection, schedule: Q01DX001 (ip), vehicle: saline
[10] = dose: 100.0 mg/kg/injection, schedule: Q04DX003 (ip), vehicle: Klucel (hydroxypropylcellulose) (HPC)
[11] = dose: 200.0 mg/kg/injection, schedule: Q04DX003 (ip), vehicle: Klucel (hydroxypropylcellulose) (HPC)
[12] = dose: 400.0 mg/kg/injection, schedule: Q04DX003 (ip), vehicle: Klucel (hydroxypropylcellulose) (HPC)
[13] = dose: 25.0 mg/kg/injection, schedule: Q04DX003 (ip), vehicle: saline
[14] = dose: 100.0 mg/kg/injection, schedule: Q04DX002 (ip), vehicle: Klucel (hydroxypropylcellulose) (HPC)
[15] = dose: 200.0 mg/kg/injection, schedule: Q04DX002 (ip), vehicle: Klucel (hydroxypropylcellulose) (HPC)
[16] = dose: 400.0 mg/kg/injection, schedule: Q04DX002 (ip), vehicle: Klucel (hydroxypropylcellulose) (HPC)
[17] = dose: 100.0 mg/kg/injection, schedule: Q01DX009 (ip), vehicle: Klucel (hydroxypropylcellulose) (HPC)
[18] = dose: 200.0 mg/kg/injection, schedule: Q01DX009 (ip), vehicle: Klucel (hydroxypropylcellulose) (HPC)
[19] = dose: 50.0 mg/kg/injection, schedule: Q01DX009 (ip), vehicle: saline with Tween-80
[20] = dose: 100.0 mg/kg/injection, schedule: Q01DX009 (ip), vehicle: saline with Tween-80
[21] = dose: 200.0 mg/kg/injection, schedule: Q01DX009 (ip), vehicle: saline with Tween-80
[22] = dose: 50.0 mg/kg/injection, schedule: Q01DX009 (ip), vehicle: Klucel (hydroxypropylcellulose) (HPC)
[23] = dose: 400.0 mg/kg/injection, schedule: Q01DX009 (ip), vehicle: saline with Tween-80

Measured: T/C

C[C@@H]1O[C@@H](O[C@H]2CC[C@]3(C=O)[C@H]4CC[C@]5(C)[C@@H](c6ccc(=O)oc6)CC[C@]5(O)[C@@H]4CC[C@]3(O)C2)[C@H](O)[C@H](O)[C@H]1O[C@@H]1O[C@H](CO)[C@@H](O)[C@H](O)[C@H]1O
inactive: dose: 5.0 mg/kg/injection, schedule: Q01DX001 (ip), vehicle: carboxymethylcellulose (CMC) 100 % of control | [1] 94 % of control

Cc1cccc[n+]1Cc1cc(=O)[nH]c(=O)[nH]1
inactive: [2] 101 % of control | [3] 98 % of control | [4] 98 % of control

C=C(C)c1ccc(C)c(C)c1
inactive: dose: 25.0 mg/kg/injection, schedule: Q04DX003 (ip), vehicle: saline with Tween-80 100 % of control | dose: 50.0 mg/kg/injection, schedule: Q04DX003 (ip), vehicle: saline with Tween-80 106 % of control | [5] 94 % of control | [6] 95 % of control | [7] 90 % of control

Brc1ccc([I+]c2ccccc2)cc1
inactive: dose: 50.0 mg/kg/injection, schedule: Q01DX001 (ip), vehicle: saline 103 % of control | [8] 106 % of control | [9] 95 % of control

CCC(=N\O)/C(C)=N/O
inactive: [10] 103 % of control | [11] 103 % of control | [12] 100 % of control

CC(=O)OC12CC[N+]3(C)CCCCC3C1=Nc1ccccc12 (stereo unspecified)
inactive: dose: 6.25 mg/kg/injection, schedule: Q01DX009 (ip), vehicle: saline 98 % of control | [1] 102 % of control | dose: 12.5 mg/kg/injection, schedule: Q01DX009 (ip), vehicle: saline 102 % of control | dose: 20.0 mg/kg/injection, schedule: Q01DX001 (ip), vehicle: carboxymethylcellulose (CMC) 105 % of control | dose: 25.0 mg/kg/injection, schedule: Q01DX009 (ip), vehicle: saline 102 % of control | [13] 103 % of control | dose: 40.0 mg/kg/injection, schedule: Q01DX001 (ip), vehicle: carboxymethylcellulose (CMC) 100 % of control | dose: 80.0 mg/kg/injection, schedule: Q01DX001 (ip), vehicle: carboxymethylcellulose (CMC) 102 % of control

Cc1cc([N+](=O)[O-])cc([N+](=O)[O-])c1OC(=O)c1ccc(N=C(N)N)cc1
inactive: [13] 103 % of control | dose: 50.0 mg/kg/injection, schedule: Q01DX009 (ip), vehicle: saline 102 % of control | dose: 50.0 mg/kg/injection, schedule: Q04DX003 (ip), vehicle: saline 97 % of control | dose: 100.0 mg/kg/injection, schedule: Q01DX009 (ip), vehicle: saline 94 % of control and 91 % of control | [2] 96 % of control and 92 % of control

CC(=O)NC1C(OC(=O)c2ccccc2)OC(CO)C(O)C1OC(=O)c1ccccc1 (stereo unspecified)
inactive: dose: 100.0 mg/kg/injection, schedule: Q01DX001 (ip), vehicle: saline with Tween-80 101 % of control | dose: 200.0 mg/kg/injection, schedule: Q01DX001 (ip), vehicle: saline with Tween-80 105 % of control | dose: 400.0 mg/kg/injection, schedule: Q01DX001 (ip), vehicle: saline with Tween-80 94 % of control

CCOC(=O)c1ccc(Nc2sc(C(=O)c3cccc([N+](=O)[O-])c3)c(N)c2C#N)cc1
inactive: [14] 101 % of control | [15] 92 % of control | [16] 92 % of control

O=c1c2ccccc2[nH]c2ccc(Cl)cc12
inactive: [17] 92 % of control | [10] 96 % of control | [18] 96 % of control | [11] 91 % of control | dose: 400.0 mg/kg/injection, schedule: Q01DX009 (ip), vehicle: Klucel (hydroxypropylcellulose) (HPC) 86 % of control | [12] 100 % of control

CC(=O)Nc1ccc(OC(=O)Nc2ccc(Cl)cc2C(F)(F)F)cc1
inactive: [19] 93 % of control | [20] 100 % of control | [21] 104 % of control

O=C(O)c1ccccc1C(=O)OO
inactive: [19] 97 % of control | [20] 97 % of control | [21] 97 % of control

O=C(O)CSc1c([N+](=O)[O-])cc(C(F)(F)F)cc1[N+](=O)[O-]
inactive: [22] 101 % of control | [17] 101 % of control | [18] 95 % of control

N#CC(c1ccccc1)C(C/C(=N\O)c1ccccc1)c1ccccc1 (stereo unspecified)
inactive: [14] 111 % of control | [15] 100 % of control | [16] 96 % of control

CCN(CC)CCSC(=O)c1ccc([N+](=O)[O-])cc1
inactive: [8] 98 % of control | [9] 104 % of control

CSc1nc(N)nc2nc(C)cc(C)c12
inactive: dose: 100.0 mg/kg/injection, schedule: Q01DX Z (ip), vehicle: methylcellulose (MC) 110 % of control

CC(C)(CO)NC(=O)CC1CCCCC1
inactive: [20] 96 % of control | [21] 97 % of control | [23] 97 % of control

Nc1cnccc1Nc1ccc(-c2ccccc2)cc1
inactive: [20] 92 % of control

CCCCC(=O)NC(=O)c1ccccc1
inactive: [20] 96 % of control | [5] 101 % of control | [21] 96 % of control | [6] 92 % of control | [23] 93 % of control | [7] 103 % of control

CNC(=S)N/N=C(\C=N\NC(=S)NC)c1ccc(-c2ccccc2)cc1
inactive: [14] 89 % of control | [15] 92 % of control | [16] 92 % of control

COc1ccc(NC(=O)Nc2cc([N+](=O)[O-])ccc2F)cc1
inactive: [10] 89 % of control | [11] 89 % of control | [12] 88 % of control

Clc1cc(NCc2ccco2)ncn1
inactive: dose: 50.0 mg/kg/injection, schedule: Q01DX001 (ip), vehicle: Klucel (hydroxypropylcellulose) (HPC) 103 % of control | dose: 100.0 mg/kg/injection, schedule: Q01DX001 (ip), vehicle: Klucel (hydroxypropylcellulose) (HPC) 97 % of control | dose: 200.0 mg/kg/injection, schedule: Q01DX001 (ip), vehicle: Klucel (hydroxypropylcellulose) (HPC) 97 % of control

COc1cccc2c1CCC1C2CC=C2CC3(CCC21C)OCCO3 (stereo unspecified)
inactive: dose: 100.0 mg/kg/injection, schedule: Q01DX009 (sc), vehicle: steriod suspending solution 102 % of control | dose: 200.0 mg/kg/injection, schedule: Q01DX009 (sc), vehicle: steriod suspending solution 102 % of control | dose: 400.0 mg/kg/injection, schedule: Q01DX009 (sc), vehicle: steriod suspending solution 101 % of control

N=C1SCCS1
inactive: dose: 100.0 mg/kg/injection, schedule: Q04DX002 (ip), vehicle: saline 92 % of control | dose: 200.0 mg/kg/injection, schedule: Q04DX002 (ip), vehicle: saline 101 % of control | dose: 400.0 mg/kg/injection, schedule: Q04DX002 (ip), vehicle: saline 105 % of control

COc1ccc(S(=O)(=O)NC(=O)NC(=O)C=C(C)C)cc1
inactive: [22] 98 % of control | [17] 104 % of control | [10] 102 % of control | [18] 96 % of control | [11] 98 % of control | [12] 101 % of control

CCOC(=O)C1=C(NNC(N)=S)C2CCN1CC2
inactive: [8] 105 % of control | [9] 100 % of control | dose: 400.0 mg/kg/injection, schedule: Q01DX001 (ip), vehicle: saline 101 % of control

Cc1ccc(SSc2ccc(C)cc2)cc1
inactive: dose: 75.0 mg/kg/injection, schedule: Q01DX009 (ip), vehicle: saline 108 % of control | [2] 101 % of control | [3] 103 % of control | [4] 88 % of control

CC(=O)/C(C)=C/c1ccccc1
inactive: dose: 100.0 mg/kg/injection, schedule: Q01DX001 (ip), vehicle: other 107 % of control | [5] 100 % of control | dose: 200.0 mg/kg/injection, schedule: Q01DX001 (ip), vehicle: other 96 % of control | [6] 105 % of control | dose: 400.0 mg/kg/injection, schedule: Q01DX001 (ip), vehicle: other 91 % of control | [7] 100 % of control

COc1ccc(OC)c(NC(=O)Nc2cc(C)ccc2OC)c1
inactive: [10] 95 % of control | [11] 92 % of control | [12] 97 % of control

COC(=O)C1/C(=C/c2ccccc2)C(=O)c2ccccc21 (stereo unspecified)
inactive: dose: 100.0 mg/kg/injection, schedule: Q04DX002 (ip), vehicle: saline with Tween-80 87 % of control | dose: 200.0 mg/kg/injection, schedule: Q04DX002 (ip), vehicle: saline with Tween-80 87 % of control | dose: 400.0 mg/kg/injection, schedule: Q04DX002 (ip), vehicle: saline with Tween-80 94 % of control
